Measured values: paper PMC7144358, “Determination of KD025 (SLx-2119), a Selective ROCK2 Inhibitor, in Rat Plasma by High-Performance Liquid Chromatography-Tandem Mass Spectrometry and Its Pharmacokinetic Application” (Molecules, 2020)
Where two headings read alike, the source gives them in different places.

Columns and labels:
[1] = Stability of KD025 in rat plasma under storage/handling conditions; assay type: in vitro ADME; conditions: for Stability (%), auto-sampler stability (24 h at 4 °C): processed rat plasma sample; for Stability (%), auto-sampler stability (24 h at 4 °C) / Stability (%), freeze-thaw stability (3 cycles) / Stability (%), long-term stability (4 weeks at −20 °C) / Stability (%), short-term stability (4 h at room temperature): n = 3
Procedure: (§1) The stability of stock solutions of KD025 and IS was assessed by comparing the peak response of freshly prepared methanol/acetonitrile solution with that of the solution stored at room temperature for 4 hours or at −20 °C for 4 weeks of KD025 (200 ng/mL) and IS (250 ng/mL). The stability of QC samples in rat plasma at low, middle, high, and ultra-high concentrations was investigated in terms of short- and long-term stability, post-preparative stability, and freeze-thaw stability. Short-term stability was assessed by holding QC samples at the laboratory condition (room temperature) for 4 h, while QC samples were stored at −20 °C for 4 weeks to evaluate long-term stability. The post-preparative stability of processed samples stored in an autosampler (4 °C) was evaluated after 24 hours. Freeze-thaw stability was tested over three repeated cycles, in which QC samples were frozen at −20 °C and then thawed at room temperature. Peak area ratio changes of < 15% between stored and freshly prepared samples were considered as the criteria for the stability of samples [41].

[2] = design: method as in PMID 28389592; conditions: 38 patients with psoriasis, oral administration, phase 2; cited from earlier work
[3] = design: method as in doi:10.1016/j.bbmt.2018.12.100, doi:10.1182/blood-2019-125986, doi:10.1097/01.HS9.0000564392.13730.a3; conditions: 54 patients, phase 2a; cited from earlier work
[4] = test system: ROCK2; design: method as in PMID 26486225, PMID 21242007; conditions: cited from earlier work
[5] = Stability of stock solutions; assay type: physicochemical; conditions: KD025 200 ng/mL, IS 250 ng/mL; for Stock solution stability, concentration as % of fresh samples: room temperature for 4 h; for Stock solution stability: −20 °C for 4 weeks
Procedure: as §1

[6] = Pharmacokinetic study after single oral and IV administration of KD025 to rats; assay type: in vivo, Sprague–Dawley rats; conditions: rat
Procedure: The feasibility of the developed LC/MS–MS method was examined by performing pharmacokinetic studies of KD025 in rats. Animal experiments were performed in accordance with the guide for the care and use of laboratory animals issued by the National Institutes of Health, as described previously. All experimental protocols were approved by the Animal Care and Use Committee of Gachon University (No. GIACUC-R2018014, approved on June 20th, 2018). Sprague–Dawley rats (8–9 weeks, 250–300 g, Nara Biotech, South Korea) were provided free access to food and water and maintained under 12 h light/dark cycles to adjust to the laboratory environment for a week before commencing the study. Rats were anesthetized by intramuscular injections (20 mg/kg) of Zoletil® (Vibrac, TX, USA) and cannulated by surgery to the femoral artery with polyethylene tubing (Clay Adams, NJ, USA) filled with heparinized saline (20 IU/mL) for blood sampling. After the rats had recovered from surgery, KD025 in a vehicle mixture (DMSO:Cremophor EL:PEG400:DDW = 5:10:40:50) was administered to rats at a dose of 5 mg/kg and 2 mg/kg for oral and IV administration, respectively. Blood samples (220 μL) were collected at 0 (blank), 1 (IV only), 5, 15, 30, 60, 120, 180, 240, 360, 480 and 1440 (oral only) min after KD025 administration and equal volumes of saline were injected for compensation of fluid loss. Plasma was separated from other components of blood by centrifugation at 14,000 rpm for 15 min at 4 °C and then was stored at −20 °C until analysis.
For sample preparation, 100 μL of IS in acetonitrile solution (250 ng/mL) was added to 50 μL of plasma samples, followed by vortex-mixing in 1 min for deproteinization. Samples were then centrifuged at 14,000 rpm for 15 min at 4 °C, and 100 μL aliquots of the supernatant were collected for analysis, as described in Section 3.2. The plasma peak concentration (Cmax) and time to reach Cmax (Tmax) were directly determined from each individual plasma concentration–time profile. Other pharmacokinetic parameters were calculated using WinNonlin® 3.1 software (Pharsight, Cary, NC, USA) by a non-compartmental method, as described previously. Results are presented as means ± standard deviations.

[7] = human, in vivo, po; cited from earlier work
[8] = rat plasma, UHQC 8000 ng/mL diluted 10 times to 800 ng/mL
[9] = Sprague-Dawley, plasma, IV 2 mg/kg, n = 5
[10] = Sprague-Dawley, plasma, PO 5 mg/kg, n = 5

CC(C)NC(=O)COc1cccc(-c2nc(Nc3ccc4[nH]ncc4c3)c3ccccc3n2)c1 [KD025, 2-(3-(4-((1H-Indazol-5-yl)amino)quinazolin-2-yl)phenoxy)-N-isopropylacetamide]
Stability (%), auto-sampler stability (24 h at 4 °C) ([1]; 1 ng/mL): 112.1 ± 2.0% | Stability (%), auto-sampler stability (24 h at 4 °C) ([1]; 3 ng/mL): 100.2 ± 0.2% | Stability (%), auto-sampler stability (24 h at 4 °C) ([1]; 40 ng/mL): 102.0 ± 1.3% | Stability (%), auto-sampler stability (24 h at 4 °C) ([1]; 400 ng/mL): 98.1 ± 2.1% | Stability (%), auto-sampler stability (24 h at 4 °C) ([1]; 800 ng/mL): 101.1 ± 0.8% | Stability (%), auto-sampler stability (24 h at 4 °C) ([1]; UHQC 8000 ng/mL diluted 10 times to 800 ng/mL): 103.3 ± 3.2% | Short-term stability, peak area ratio vs freshly prepared samples ([1]; rat plasma at room temperature (4 h), range over QC and UHQC concentrations): 92.8–100.5% | Long-term stability, peak area ratio vs freshly prepared samples ([1]; rat plasma at −20 °C (4 weeks), range over QC and UHQC concentrations): 95.8–109.9% | Stability (%), freeze-thaw stability (3 cycles) ([1]; rat plasma, 1 ng/mL): 114.1 ± 1.5% | Stability (%), long-term stability (4 weeks at −20 °C) ([1]; rat plasma, 1 ng/mL): 95.8 ± 3.7% | Stability (%), short-term stability (4 h at room temperature) ([1]; rat plasma, 1 ng/mL): 92.8 ± 5.0% | Stability (%), freeze-thaw stability (3 cycles) ([1]; rat plasma, 3 ng/mL): 108.7 ± 3.4% | Stability (%), long-term stability (4 weeks at −20 °C) ([1]; rat plasma, 3 ng/mL): 104.9 ± 6.0% | Stability (%), short-term stability (4 h at room temperature) ([1]; rat plasma, 3 ng/mL): 93.0 ± 1.3% | Stability (%), freeze-thaw stability (3 cycles) ([1]; rat plasma, 40 ng/mL): 110.1 ± 6.5% | Stability (%), long-term stability (4 weeks at −20 °C) ([1]; rat plasma, 40 ng/mL): 106.3 ± 3.0% | Stability (%), short-term stability (4 h at room temperature) ([1]; rat plasma, 40 ng/mL): 94.0 ± 1.6% | Stability (%), freeze-thaw stability (3 cycles) ([1]; rat plasma, 400 ng/mL): 103.3 ± 3.3% | Stability (%), long-term stability (4 weeks at −20 °C) ([1]; rat plasma, 400 ng/mL): 109.9 ± 2.2% | Stability (%), short-term stability (4 h at room temperature) ([1]; rat plasma, 400 ng/mL): 99.0 ± 0.6% | Stability (%), freeze-thaw stability (3 cycles) ([1]; rat plasma, 800 ng/mL): 109.3 ± 5.3% | Stability (%), long-term stability (4 weeks at −20 °C) ([1]; rat plasma, 800 ng/mL): 106.4 ± 1.1% | Stability (%), short-term stability (4 h at room temperature) ([1]; rat plasma, 800 ng/mL): 93.6 ± 1.8% | Stability (%), freeze-thaw stability (3 cycles) [1, 8]: 114.3 ± 2.2% | Stability (%), long-term stability (4 weeks at −20 °C) [1, 8]: 98.6 ± 0.5% | Stability (%), short-term stability (4 h at room temperature) [1, 8]: 100.5 ± 2.5% | Peak area ratio vs fresh samples after three freeze-thaw cycles ([1]; rat plasma, range over five QC and UHQC concentrations): 103.3–114.3% | Post-preparative stability, peak area ratio ([1]; samples stored in autosampler at 4 °C (24 h), range over QC and UHQC concentrations): 98.1–112.1% | Clinical effect in psoriasis [2]: reduced psoriasis area, normalized skin pathology, and down-regulated serum IL-17 and IL-23 cytokines | Tolerability [2]: well tolerated, with no serious side effects | Clinical response in chronic graft-versus-host disease [3]: clinically meaningful responses with little toxicity and reductions in corticosteroid doses | Selectivity for ROCK2 than ROCK1 [4]: 100 fold | Stock solution stability, concentration as % of fresh samples [5]: 89.6% | Stock solution stability [5]: 95.4% | AUC(0-t) [6, 9]: 872 ng·h/mL | MRT [6, 9]: 0.773 h | clearance [6, 9]: 38.9 ± 6.2 mL/min/kg | half-life [6, 9]: 1.47 ± 0.332 h | Cmax ([6]; Sprague-Dawley, plasma, IV 2 mg/kg, n = 5, C0 estimated by noncompartmental analysis, read-out: Cmax (C0)): 4420 ± 1210 ng/mL | Vd ([6]; Sprague-Dawley, plasma, IV 2 mg/kg, n = 5, read-out: Vss): 1.78 ± 0.287 L/kg | AUC(0-t) [6, 10]: 763 ng·h/mL | MRT [6, 10]: 7.91 h | half-life [6, 10]: 5.89 ± 2.82 h | Tmax ([6]; Sprague-Dawley, plasma, PO 5 mg/kg, n = 5, mean ± SD): 2.2 h | Cmax ([6]; Sprague-Dawley, plasma, PO 5 mg/kg, n = 5, mean ± SD, read-out: Cmax): 128 ± 74.7 ng/mL | AUC(0-inf) ([6]; Sprague-Dawley, plasma, iv, 2 mg/kg, IV 2 mg/kg, n = 5): 812 ng·h/mL | bioavailability ([6]; Sprague-Dawley, plasma, oral, PO 5 mg/kg vs IV 2 mg/kg, AUC∞PO/AUC∞IV × 100): ~37% | AUC(0-inf) ([6]; Sprague-Dawley, plasma, po, 5 mg/kg, PO 5 mg/kg, n = 5): 877 ng·h/mL | AUClast to AUC∞ ratio ([6]; IV 2 mg/kg): 99.2% | AUC∞ /Dose ([6]; IV 2 mg/kg, n = 5): 26.3 ± 5.0 μg∙min/mL/[mg/kg] | AUC∞ ([6]; IV 2 mg/kg, n = 5, 2 mg/kg): 52.7 ± 10.0 µg·min/mL | AUC∞ /Dose ([6]; PO 5 mg/kg, n = 5): 9.7 ± 2.4 μg∙min/mL/[mg/kg] | AUC∞ ([6]; PO 5 mg/kg, n = 5, 5 mg/kg): 48.7 ± 11.8 µg·min/mL | AUClast to AUC∞ ratio ([6]; oral 5 mg/kg): 94.0% | Tolerability [7]: well tolerated and produced no significant adverse events, including cardiovascular side effects

CC1=C(C(=O)Nc2cc3cn[nH]c3cc2F)C(c2ccc(C(F)(F)F)cc2)CC(=O)N1 (stereo not drawn) [IS]
Stock solution stability, concentration as % of fresh samples [5]: 100.0% | Stock solution stability [5]: 91.1%
